From ChEMBL document CHEMBL4665641, “Lead optimization and efficacy evaluation of quinazoline-based BET family inhibitors for potential treatment of cancer and inflammatory diseases” (Bioorg Med Chem Lett, 2019)

System: not listed separately
Experiment: Volume of distribution at steady state in CD-1 mouse at 2 mg/kg, iv
Type: ADME, organism-based
Conditions: in vivo, read-out: Vdss
Work on `Cc1noc(C)c1-c1ccc2nc(-c3cnn(CC(C)(C)O)c3)nc(N3CCN(S(C)(=O)=O)C[C@@H]3c3ccccc3)c2c1` yielded a Vd of 0.82 L/kg. `Cc1noc(C)c1-c1ccc2nc(-c3cnn(CC(C)(C)O)c3)nc(N3CCOC[C@@H]3c3cccs3)c2c1` showed a Vd of 1.01 L/kg. For `Cc1noc(C)c1-c1ccc2nc(-c3cnn(CC(C)(C)O)c3)nc(N3CCOC[C@@H]3c3ccc(F)cc3)c2c1`, the Vd was 1.47 L/kg.

System: not listed separately
Experiment: AUC(0 to infinity) in CD-1 mouse at 2 mg/kg, iv
Type: ADME, organism-based
Set-up: time infinity, route intravenous, dose 2 mg/kg
Conditions: CD-1, mouse, in vivo
`Cc1noc(C)c1-c1ccc2nc(-c3cnn(CC(C)(C)O)c3)nc(N3CCN(S(C)(=O)=O)C[C@@H]3c3ccccc3)c2c1` showed an AUC(0-inf) of 4.95 µg·h/mL. With `Cc1noc(C)c1-c1ccc2nc(-c3cnn(CC(C)(C)O)c3)nc(N3CCOC[C@@H]3c3cccs3)c2c1` the AUC(0-inf) was 4.94 µg·h/mL. Work on `Cc1noc(C)c1-c1ccc2nc(-c3cnn(CC(C)(C)O)c3)nc(N3CCOC[C@@H]3c3ccc(F)cc3)c2c1` yielded an AUC(0-inf) of 5.79 µg·h/mL.

System: MV4-11
Experiment: Cytotoxicity against human MV4-11 cells assessed as inhibition of cell viability
Type: functional, cell-based
Conditions: not given
`Cc1noc(C)c1-c1ccc2nc(-c3cnn(CC(C)(C)O)c3)nc(N3CCN(S(C)(=O)=O)C[C@@H]3c3ccccc3)c2c1` showed an IC50 of 1.13 µM. With `Cc1noc(C)c1-c1ccc2nc(-c3cnn(CC(C)(C)O)c3)nc(N3CCOC[C@@H]3c3cccs3)c2c1` the IC50 was 1.95 µM. With `Cc1noc(C)c1-c1ccc2nc(-c3cnn(CC(C)(C)O)c3)nc(N3CCOC[C@@H]3c3ccc(F)cc3)c2c1` the IC50 was 1.27 µM.

Biological target: T1, Bromodomain-containing protein 4 (Homo sapiens, UniProt O60885)
Experiment: Inhibition of human full-length recombinant N-terminal His-tagged BRD4 (2 to 1362 residues) expressed in Sf9 cells using histone H4 peptide containing acetylated lysine residues as substrate preincubated with enzyme for 30 mins followed by incubation with substrate for 30 mins by Alphascreen assay […]
Conditions: not given
Compound `Cc1noc(C)c1-c1ccc2nc(-c3cnn(CC(C)(C)O)c3)nc(N3CCN(S(C)(=O)=O)C[C@@H]3c3ccccc3)c2c1` has an IC50 of 0.09 µM. For `Cc1noc(C)c1-c1ccc2nc(-c3cnn(CC(C)(C)O)c3)nc(N3CCOC[C@@H]3c3cccs3)c2c1`, the IC50 was 0.364 µM. Compound `Cc1noc(C)c1-c1ccc2nc(-c3cnn(CC(C)(C)O)c3)nc(N3CCOC[C@@H]3c3ccc(F)cc3)c2c1` has an IC50 of 0.013 µM.

System: not listed separately
Experiment: Oral bioavailability in CD-1 mouse at 10 mg/kg
Type: ADME, organism-based
Conditions: CD-1, mouse, in vivo
For `Cc1noc(C)c1-c1ccc2nc(-c3cnn(CC(C)(C)O)c3)nc(N3CCN(S(C)(=O)=O)C[C@@H]3c3ccccc3)c2c1`, the bioavailability was 86%. `Cc1noc(C)c1-c1ccc2nc(-c3cnn(CC(C)(C)O)c3)nc(N3CCOC[C@@H]3c3cccs3)c2c1` showed a bioavailability of 72%. `Cc1noc(C)c1-c1ccc2nc(-c3cnn(CC(C)(C)O)c3)nc(N3CCOC[C@@H]3c3ccc(F)cc3)c2c1` gave a bioavailability of 90%.

System: not listed separately
Experiment: Stability in mouse liver microsomes assessed as half life
Type: ADME, Microsome
Conditions: not given
With `Cc1noc(C)c1-c1ccc2nc(-c3cnn(CC(C)(C)O)c3)nc(N3CCOC[C@@H]3c3ccc(F)cc3)c2c1` the t1/2 was 0.867 h.

System: not listed separately
Experiment: Cmax in CD-1 mouse at 2 mg/kg, iv measured after 5 mins
Type: ADME, organism-based
Set-up: route intravenous, dose 2 mg/kg
Conditions: CD-1, mouse, in vivo, read-out: Cmax
Work on `Cc1noc(C)c1-c1ccc2nc(-c3cnn(CC(C)(C)O)c3)nc(N3CCN(S(C)(=O)=O)C[C@@H]3c3ccccc3)c2c1` yielded a Cmax of 2.58 µg/mL. For `Cc1noc(C)c1-c1ccc2nc(-c3cnn(CC(C)(C)O)c3)nc(N3CCOC[C@@H]3c3cccs3)c2c1`, the Cmax was 1.57 µg/mL. With `Cc1noc(C)c1-c1ccc2nc(-c3cnn(CC(C)(C)O)c3)nc(N3CCOC[C@@H]3c3ccc(F)cc3)c2c1` the Cmax was 1.59 µg/mL.

System: not listed separately
Experiment: Plasma clearance in CD-1 mouse at 2 mg/kg, iv
Type: ADME, organism-based
Conditions: not given
`Cc1noc(C)c1-c1ccc2nc(-c3cnn(CC(C)(C)O)c3)nc(N3CCN(S(C)(=O)=O)C[C@@H]3c3ccccc3)c2c1` showed a clearance of 0.414 L/h/kg. With `Cc1noc(C)c1-c1ccc2nc(-c3cnn(CC(C)(C)O)c3)nc(N3CCOC[C@@H]3c3cccs3)c2c1` the clearance was 0.438 L/h/kg. `Cc1noc(C)c1-c1ccc2nc(-c3cnn(CC(C)(C)O)c3)nc(N3CCOC[C@@H]3c3ccc(F)cc3)c2c1` showed a clearance of 0.354 L/h/kg.

System: not listed separately
Experiment: Half life in CD-1 mouse at 10 mg/kg, po
Type: ADME, organism-based
Conditions: in vivo
In the case of `Cc1noc(C)c1-c1ccc2nc(-c3cnn(CC(C)(C)O)c3)nc(N3CCN(S(C)(=O)=O)C[C@@H]3c3ccccc3)c2c1`, the half-life is reported as 1.7 h. In the case of `Cc1noc(C)c1-c1ccc2nc(-c3cnn(CC(C)(C)O)c3)nc(N3CCOC[C@@H]3c3cccs3)c2c1`, the half-life is reported as 2.4 h. With `Cc1noc(C)c1-c1ccc2nc(-c3cnn(CC(C)(C)O)c3)nc(N3CCOC[C@@H]3c3ccc(F)cc3)c2c1` the half-life was 2.8 h.

System: not listed separately
Experiment: AUC(0 to infinity) in CD-1 mouse at 10 mg/kg, po
Type: ADME, organism-based
Set-up: route oral, time infinity, dose 10 mg/kg
Conditions: CD-1, mouse, in vivo
`Cc1noc(C)c1-c1ccc2nc(-c3cnn(CC(C)(C)O)c3)nc(N3CCN(S(C)(=O)=O)C[C@@H]3c3ccccc3)c2c1` showed an AUC(0-inf) of 21.2 µg·h/mL. Compound `Cc1noc(C)c1-c1ccc2nc(-c3cnn(CC(C)(C)O)c3)nc(N3CCOC[C@@H]3c3cccs3)c2c1` has an AUC(0-inf) of 17.7 µg·h/mL. `Cc1noc(C)c1-c1ccc2nc(-c3cnn(CC(C)(C)O)c3)nc(N3CCOC[C@@H]3c3ccc(F)cc3)c2c1` gave an AUC(0-inf) of 26.1 µg·h/mL.

System: not listed separately
Experiment: Half life in CD-1 mouse at 2 mg/kg, iv
Type: ADME, organism-based
Conditions: in vivo
With `Cc1noc(C)c1-c1ccc2nc(-c3cnn(CC(C)(C)O)c3)nc(N3CCN(S(C)(=O)=O)C[C@@H]3c3ccccc3)c2c1` the half-life was 1.4 h. `Cc1noc(C)c1-c1ccc2nc(-c3cnn(CC(C)(C)O)c3)nc(N3CCOC[C@@H]3c3cccs3)c2c1` gave a half-life of 1.4 h. `Cc1noc(C)c1-c1ccc2nc(-c3cnn(CC(C)(C)O)c3)nc(N3CCOC[C@@H]3c3ccc(F)cc3)c2c1` showed a half-life of 2.6 h.

Biological target: T1, Bromodomain-containing protein 4
Experiment: Competitive binding affinity to human partial length BRD4 (BD1,2) (N44 to E460 residues) expressed in bacterial expression system by BROMOscan assay
Conditions: not given
`Cc1noc(C)c1-c1ccc2nc(-c3cnn(CC(C)(C)O)c3)nc(N3CCN(S(C)(=O)=O)C[C@@H]3c3ccccc3)c2c1` gave a Kd of 0.068 µM. With `Cc1noc(C)c1-c1ccc2nc(-c3cnn(CC(C)(C)O)c3)nc(N3CCOC[C@@H]3c3cccs3)c2c1` the Kd was 0.22 µM. `Cc1noc(C)c1-c1ccc2nc(-c3cnn(CC(C)(C)O)c3)nc(N3CCOC[C@@H]3c3ccc(F)cc3)c2c1` gave a Kd of 0.058 µM.

System: not listed separately
Experiment: Cmax in CD-1 mouse at 10 mg/kg, po
Type: ADME, organism-based
Set-up: route oral, dose 10 mg/kg
Conditions: CD-1, mouse, in vivo, read-out: Cmax
Work on `Cc1noc(C)c1-c1ccc2nc(-c3cnn(CC(C)(C)O)c3)nc(N3CCN(S(C)(=O)=O)C[C@@H]3c3ccccc3)c2c1` yielded a Cmax of 2.67 µg/mL. For `Cc1noc(C)c1-c1ccc2nc(-c3cnn(CC(C)(C)O)c3)nc(N3CCOC[C@@H]3c3cccs3)c2c1`, the Cmax was 2.22 µg/mL. `Cc1noc(C)c1-c1ccc2nc(-c3cnn(CC(C)(C)O)c3)nc(N3CCOC[C@@H]3c3ccc(F)cc3)c2c1` gave a Cmax of 2.08 µg/mL.
